Measurements taken from patent US10421754B2, “Quinazoline derivative” (CSPC ZHONGQI PHARMACEUTICAL TECHNOLOGY (SHIJIAZHUANG) CO., …, priority 2014, dated 2019).
pIC50: −log10 of the molar value.

How the values were obtained:
[1] = Mouse maximum tolerated dose (MTD) experiment; conditions: in vivo, mice, oral, administered 7 days then observed 7 days
Protocol: In the mouse MTD experiment, the mice were administrated with the present compounds.
Healthy mice, having a small difference in body's weights, were chosen. The chosen mice were placed in different layers of cages according to their body's weights. In each layer, the mice were randomly divided into groups. In each group, there were three mice.
The administration dosages were 1000, 500, 250, 125, 62.5 and 31.25 mg/kg respectively and each two dosages differed by a factor of 2. For each of administration dosages, three mice were allotted. The mice were administrated with the present compounds for 7 days and then observed for the next 7 days without the present compounds.
The present compounds were orally administrated with the mice according to the administration dosage and the body weight.

[2] = system: A431; assay: In vitro cell experiment (MTT), A431; format: cell-based; conditions: A-431, 72 h, human epidermoid carcinoma (EGFR1 overexpressing)
Protocol: (§1) Cells in logarithmic growth phase were seeded at a certain density in a 96-well plate (200 μL/well). The cells were allowed to grow for 24 h and subsequently treated with different concentrations of drugs (including a blank group and a control group) and incubated for 72 h at 37° C. Each concentration in a given experiment was tested in triplicate. After 72 h of exposure, 20 μL of the MTT labeling reagent was added to the medium (the final concentration of MTT was 0.5 mg/mL), and the cells were incubated for additional 4 h at 37° C. Following this process, 180 μL of the medium was removed and 130 μL of DMSO was added to each well, or the medium was completely removed and 150 μL of DMSO was added to each well. Then the plate was shaken and mixed in a micro-oscillator. Finally the optical density (OD) of each sample was measured in a micro-plate reader at 550 nm. Cell inhibition rate was calculated according to the following formula: […]
(§2) According to cell inhibition rates, IC50 was calculated by LOGIT method. The experiments were repeated twice and the data was expressed as means±SD.

[3] = system: HT-29; assay: In vitro cell experiment (MTT), HT-29; format: cell-based; conditions: 72 h, human colon carcinoma cells (expressing both c-KIT and PDGFR)
Protocol: as §1, §2

[4] = system: HCT116; assay: In vitro cell experiment (MTT), HCT116; format: cell-based; conditions: HCT-116, 72 h, human colon carcinoma cells
Protocol: as §1, §2

[5] = system: SK-OV-3; assay: In vitro cell experiment (MTT), SK-OV-3; format: cell-based; conditions: 72 h, human ovarian carcinoma cells (EGFR2 overexpressing)
Protocol: as §1, §2

[6] = system: A549; assay: In vitro cell experiment (MTT), A549; format: cell-based; conditions: 72 h, human non-small-cell lung carcinoma cells (EGFR1 wildtype)
Protocol: as §1, §2

[7] = system: HUVEC; assay: In vitro cell experiment (MTT), HUVEC; format: cell-based; conditions: 72 h, human umbilical vein endothelial cell (KDR overexpressing)
Protocol: as §1, §2

[8] = system: H292; assay: In vitro cell experiment (MTT), H292; format: cell-based; conditions: NCI-H292, 72 h, human lung carcinoma cells (EGFR1 overexpressing)
Protocol: as §1, §2

[9] = system: HCC827; assay: In vitro cell experiment (MTT), HCC827; format: cell-based; conditions: 72 h, human non-small cell lung carcinoma (EGFR1 19 exon mutation)
Protocol: as §1, §2

[10] = system: A498; assay: In vitro cell experiment (MTT), A498; format: cell-based; conditions: 72 h, human renal carcinoma cells
Protocol: as §1, §2

[11] = system: Bel-7402; assay: In vitro cell experiment (MTT), Bel-7402; format: cell-based; conditions: 72 h, human hepatoma carcinoma cells
Protocol: as §1, §2

[12] = system: A375; assay: In vitro cell experiment (MTT), A375; format: cell-based; conditions: A-375, 72 h, human melanoma cells (KDR expressing)
Protocol: as §1, §2

[13] = system: 3T3swiss; assay: In vitro cell experiment (MTT), 3T3swiss; format: cell-based; conditions: Fibroblast, 72 h, mouse fibroblasts (PDGFR overexpressing)
Protocol: as §1, §2

[14] = system: PC-9; assay: In vitro cell experiment (MTT), PC-9; format: cell-based; conditions: 72 h, human non-small-cell lung carcinoma cells (EGFR1 19 exon mutation)
Protocol: as §1, §2

Row | SMILES | MTD [1] [mg/kg] | pIC50 [5] | pIC50 [6] | pIC50 [9] | other results
1 | COc1cc2c(Nc3ccc(Br)cc3F)ncnc2cc1OCc1ccc2c(c1)OCO2 [Compound 1, 4-(4-bromo-2-fluoroanilino)-6-methoxy-7-((1,3-benzodioxole-5-yl)methoxy)quinazoline] | 500 to 1000 |  |  |  | pIC50 [2]: 5.85; pIC50 [3]: 5.55
2 | COc1cc2c(Nc3ccc(Br)cc3F)ncnc2cc1OCc1cccc(C#N)c1 [Compound 3, 4-(4-bromo-2-fluoroanilino)-6-methoxy-7-(3-cyanobenzyloxy) quinazoline] | 500 to 1000 | 5.70 |  |  | pIC50 [4]: 6.05
3 | COc1cc2c(Nc3ccc(Br)cc3F)ncnc2cc1OCc1ccc(C(F)(F)F)cc1 [Compound 5, 4-(4-bromo-2-fluoroanilino)-6-methoxy-7-(4-trifluoromethyl-benzyloxy)quinazoline] |  |  |  |  | pIC50 [4]: 5.98
4 | COc1cc2c(Nc3ccc(Br)cc3F)ncnc2cc1OCCCCCC(N)=O [Compound 6, 6-(4-(4-bromo-2-fluoroanilino)-6-methoxyquinazolin-7-yl-oxy)hexanamide] | > 1000 | 5.58 | 5.41 | 8.33 | pIC50 [7]: 7.42; pIC50 [2]: 5.68; pIC50 [8]: 7.33
5 | COc1cc2c(Nc3ccc(Br)cc3F)ncnc2cc1OCc1cccc(C)n1 [Compound 7, 4-(4-bromo-2-fluoroanilino)-6-methoxy-7-((6-methylpyridine-2-yl)methoxy)quinazoline] | 62.5 to 125 |  |  | 8.07 | 
6 | COc1cc2c(Nc3ccc(Br)cc3F)ncnc2cc1OCCn1c(C)nc2ccccc21 [Compound 8, 4-(4-bromo-2-fluoroanilino)-6-methoxy-7-(2-(2-methyl-1H-benzo[d]imidazole-1-yl)ethoxy)quinazoline] |  | 5.56 |  |  | 
7 | COc1cc2c(Nc3ccc(Br)cc3F)ncnc2cc1OCc1ccc(N2CCOCC2)cc1 [Compound 12, 4-(4-bromo-2-fluoroanilino)-6-methoxy-7-(4-morpholinobenz-yloxy)quinazoline] |  |  |  |  | pIC50 [4]: 5.96
8 | COc1cc2c(Nc3ccc(Br)cc3F)ncnc2cc1OCCCn1ccnc1 [Compound 14, 4-(4-bromo-2-fluoroanilino)-6-methoxy-7-(3-(1H-imidazol-1-yl)propoxy)quinazoline] | 62.5 to 125 | 5.54 |  | 8.05 | pIC50 [10]: 5.56; pIC50 [4]: 6.04; pIC50 [11]: 5.23; pIC50 [8]: 7.43; pIC50 [12]: 6.79
9 | COc1cc2c(Nc3ccc(Br)cc3F)ncnc2cc1OCC1CCOCC1 [Compound 15, 4-(4-bromo-2-fluoroanilino)-6-methoxy-7-((tetrahydropyran-4-yl)methoxy)quinazoline] |  |  |  |  | pIC50 [2]: 5.53
10 | COc1cc2c(Nc3ccc(Br)cc3F)ncnc2cc1OCc1csc(C)n1 [Compound 17, 4-(4-bromo-2-fluoroanilino)-6-methoxy-7-((2-methylthiazole-4-yl)methoxy)quinazoline] | 500 to 1000 |  |  | 8.17 | 
11 | COc1cc2c(Nc3ccc(Br)cc3F)ncnc2cc1Oc1ccc(C(=O)N2CCOCC2)cn1 [Compound 18, (6-(4-(4-bromo-2-fluoroanilino)-6-methoxyquinazolin-7-yl-oxy)pyridine-3-yl)(morpholino)methanone] |  |  |  |  | pIC50 [4]: 6.02
12 | COc1cc2c(Nc3ccc(F)c(Cl)c3)ncnc2cc1OCCN1CCCC1 [Compound 20, 4-(3-chloro-4-fluoroanilino)-6-methoxy-7-(2-(pyrrolidine-1-yl)ethoxy)quinazoline] | 125 to 250 |  | 5.57 | 8.54 | pIC50 [13]: 5.76; pIC50 [2]: 5.67; pIC50 [11]: 5.24; pIC50 [3]: 5.65
13 | COc1cc2c(Nc3ccc(Br)cc3F)ncnc2cc1OCCCC(N)=O [Compound 23, 4-(4-(4-bromo-2-fluoroanilino)-6-methoxyquinazolin-7-yl-oxy)butanamide] |  | 5.47 | 5.85 | 8.30 | pIC50 [13]: 5.67
14 | COc1cc2c(Nc3ccc(F)c(Cl)c3)ncnc2cc1OCCCCCC(N)=O [Compound 24, 6-(4-(3-chloro-4-fluoroanilino)-6-methoxyquinazolin-7-yl-oxy)hexanamide] | 125 to 250 | 5.61 | 5.53 | 8.25 | pIC50 [8]: 7.09; pIC50 [3]: 5.73
15 | COc1cc2c(Nc3ccc(F)c(Cl)c3)ncnc2cc1OCCCn1ccnc1 [Compound 25, 4-(3-chloro-4-fluoroanilino)-6-methoxy-7-(3-(1H-imidazole-1-yl)propoxy)quinazoline] |  |  |  | 8.59 | 
16 | COc1cc2c(Nc3ccc(Br)cc3F)ncnc2cc1OCCc1csc(C)n1 [Compound 26, 4-(4-bromo-2-fluoroanilino)-6-methoxy-7-(2-(2-methylthiazol-4-yl)ethoxy)quinazoline] |  |  |  | 8.85 | 
17 | COc1cc2c(Nc3ccc(F)c(Cl)c3)ncnc2cc1OCc1cnc(C)s1 [Compound 27, 4-(3-chloro-4-fluoroanilino)-6-methoxy-7-((2-methylthiazol-5-yl)methoxy)quinazoline] | 500 to 1000 |  | 5.41 | 8.34 | pIC50 [8]: 7.11; pIC50 [3]: 5.53
18 | COc1cc2c(Nc3ccc(F)c(Cl)c3)ncnc2cc1OCc1csc(C)n1 [Compound 27′, 4-(3-chloro-4-fluoroanilino)-6-methoxy-7-((2-methylthiazol-4-yl)methoxy)quinazoline] |  |  |  | 8.21 | 
19 | CNC(=O)CCCCCOc1cc2ncnc(Nc3ccc(Br)cc3F)c2cc1OC [Compound 31, N-methyl-6-(4-(4-bromo-2-fluoroanilino)-6-methoxyquinazolin-7-yloxy)hexanamide] |  |  |  | 7.97 | 
20 | COc1cc2c(Nc3ccc(Br)cc3F)ncnc2cc1OCCCCCC(=O)N(C)C [Compound 32, N, N-dimethyl-6-(4-(4-bromo-2-fluoroanilino)-6-methoxyquinazolin-7-yloxy)hexanamide] | 500 to 1000 |  | 5.57 | 7.96 | pIC50 [14]: 8.17
21 | COc1cc2c(Nc3ccc(Br)cc3F)ncnc2cc1OCCCCC(N)=O [Compound 33, 5-(4-(4-bromo-2-fluoroanilino)-6-methoxyquinazolin-7-yl-oxy)pentanamide] | 62.5 to 125 |  | 5.45 | 8.02 | pIC50 [14]: 8.08; pIC50 [8]: 7.13
22 | COc1cc2c(Nc3ccc(Br)cc3F)ncnc2cc1OCCn1ccnc1 [Compound 34, 4-(4-bromo-2-fluoroanilino)-6-methoxy-7-(2-(1H-imidazol-1-yl)ethoxy)quinazoline] | 125 to 250 |  | 5.89 | 8.09 | pIC50 [14]: 8.24; pIC50 [8]: 7.04
23 | COc1cc2c(Nc3ccc(F)c(Cl)c3)ncnc2cc1OCCn1ccnc1 [Compound 36, 4-(3-chloro-4-fluoroanilino)-6-methoxy-7-(2-(1H-imidazol-1-yl)ethoxy)quinazoline] |  | 5.53 | 5.44 |  | 
24 | COc1cc2c(Nc3ccc(F)c(Cl)c3)ncnc2cc1OCCCCC(N)=O [Compound 41, 5-(4-(3-chloro-4-fluoroanilino)-6-methoxyquinazolin-7-yl-oxy)pentanamide] |  | 5.57 | 5.57 | 9.05 | pIC50 [8]: 7.05
25 | CNC(=O)CCCCCOc1cc2ncnc(Nc3ccc(F)c(Cl)c3)c2cc1OC [Compound 42, N-methyl-6-(4-(3-chloro-4-fluoroanilino)-6-methoxyquinazolin-7-yloxy)hexanamide] |  |  |  | 8.55 | 
26 | COc1cc2c(Nc3ccc(F)c(Cl)c3)ncnc2cc1OCCCCCC(=O)N(C)C [Compound 43, N, N-dimethyl-6-(4-(3-chloro-4-fluoroanilino)-6-methoxyquinazolin-7-yloxy)hexanamide] |  |  |  | 8.39 | 
